This passage reports TGI results from PubChem BioAssay (NCI).

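All cell lines were grown in 96-well plates and treated with compound for 48 hours. TGI denotes the concentration required for complete inhibition of growth.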

Among the test systems are 786-0 renal; DU-145 prostate; HOP-62 NSCLC; K-562 leukemia; MDA-MB-435; NCI/ADR-RES ovarian; OVCAR-3 ovarian; RXF 393 renal; SK-MEL-2 melanoma; T-47D breast.
What all share (assay): DTP human tumour cell line panel, 48 h

In the case of `Cc1n[nH]c(=O)n1/N=C/c1ccc([N+](=O)[O-])o1`, the TGI in the experiment on 786-0 renal is 36.3 µM; in the experiment on DU-145 prostate, 22.3 µM; with HOP-62 NSCLC, greater than 64.4 µM; with K-562 leukemia, greater than 100 µM; with MDA-MB-435 it was 18.6 µM; in the experiment with NCI/ADR-RES ovarian, 70.3 µM. Also, the TGI with OVCAR-3 ovarian is 17.8 µM; in the experiment with RXF 393 renal it was 17.7 µM; in the experiment with SK-MEL-2 melanoma it was greater than 53.8 µM; in the experiment on T-47D breast, 40.6 µM.

In the case of `COC12c3ccccc3-c3ccccc3C1[C@H]1C(=O)OC(=O)[C@H]12` (stereo not given in full), the TGI in the experiment on 786-0 renal, with DU-145 prostate, in the experiment on HOP-62 NSCLC, in the experiment with K-562 leukemia, in the experiment on MDA-MB-435 and in the experiment on NCI/ADR-RES ovarian was greater than 10 µM throughout. Besides, the TGI in the experiment with OVCAR-3 ovarian, with RXF 393 renal, in the experiment on SK-MEL-2 melanoma and with T-47D breast was greater than 10 µM in each case.

`CCC(c1c[nH]c2ccc(Br)cc12)c1c[nH]c2ccc(Br)cc12`: the TGI with 786-0 renal came out at 11.2 µM; with DU-145 prostate it was 10.8 µM; in the experiment with HOP-62 NSCLC, 22.3 µM; in the experiment on K-562 leukemia it was 6.57 µM; in the experiment on MDA-MB-435, 11 µM; in the experiment with NCI/ADR-RES ovarian, 13.3 µM. For the same compound, the TGI with OVCAR-3 ovarian stood at 14.2 µM; in the experiment with RXF 393 renal, 7.21 µM; with SK-MEL-2 melanoma it was 23.1 µM; in the experiment on T-47D breast, 7.97 µM.
